Results reported in ChEMBL document CHEMBL1201862, “PubChem BioAssay data set” (2004).
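Step 1: Grow cells in 96-well plates. Step 2: Expose to compound for 48 hours at 5 concentrations. Step 3: Interpolate endpoints linearly; if unreached, use highest concentration. The concentration for 50% growth inhibition is given as GI50.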 Activity calls are given as the source filed them. No stated cut-off is given here; in the data, active = GI50 up to about 1.1 µM and inactive = higher. Non-standard residues stand in square brackets, D forms with d. Residues, ends and D or L forms follow the SMILES beside them. *: point of attachment. Ac5c = NC1(C(=O)O)CCCC1; Boc = CC(C)(C)OC(=O)*; tBu = CC(C)(C)*

Experiments:
Test in all cases: growth of human tumour cells (NCI), 48 h
NCI/ADR-RES = test system: NCI/ADR-RES
MDA-N = test system: MDA-N
MOLT-4 = test system: MOLT-4
NCI-H460 = test system: NCI-H460
HT-29 = test system: HT-29
HL-60 = test system: HL-60
HOP-62 = test system: HOP-62
SNB-75 = test system: SNB-75
CAKI-1 = test system: CAKI-1
K562 = test system: K562
786-0 = test system: 786-0
OVCAR-3 = test system: OVCAR-3
OVCAR-4 = test system: OVCAR-4
Malme-3M = test system: Malme-3M
U-251 = test system: U-251
SK-MEL-28 = test system: SK-MEL-28
SK-MEL-2 = test system: SK-MEL-2
PC-3 = test system: PC-3

| Structure (SMILES) | GI50 (NCI/ADR-RES) | GI50 (MDA-N) | GI50 (MOLT-4) | GI50 (NCI-H460) | GI50 (HT-29) | GI50 (HL-60) | GI50 (HOP-62) | GI50 (SNB-75) | GI50 (CAKI-1) | GI50 (K562) | GI50 (786-0) | GI50 (OVCAR-3) | GI50 (OVCAR-4) | GI50 (Malme-3M) | GI50 (U-251) | GI50 (SK-MEL-28) | GI50 (SK-MEL-2) | GI50 (PC-3) |
| --- | --- | --- | --- | --- | --- | --- | --- | --- | --- | --- | --- | --- | --- | --- | --- | --- | --- | --- |
| COC1CC(COCc2ccccc2)CC(OC)O1 (stereo unspecified) | > 100 µM (inactive) | > 100 µM (inactive) | > 100 µM (inactive) | > 100 µM (inactive) | > 100 µM (inactive) | < 0.01 µM (active) | > 100 µM (inactive) | > 100 µM (inactive) | > 100 µM (inactive) | > 100 µM (inactive) | > 100 µM (inactive) | > 100 µM (inactive) | – | – | – | – | – | – |
| Nc1ncnc2c1ncn2C1OC(CSC(F)F)C(O)C1O (stereo unspecified) | – | – | > 100 µM (inactive) | > 100 µM (inactive) | > 100 µM (inactive) | > 100 µM (inactive) | > 100 µM (inactive) | > 100 µM (inactive) | > 100 µM (inactive) | > 100 µM (inactive) | > 100 µM (inactive) | > 100 µM (inactive) | > 100 µM (inactive) | > 100 µM (inactive) | > 100 µM (inactive) | > 100 µM (inactive) | > 100 µM (inactive) | – |
| CC(=O)OI1NC(=O)c2ccccc21 | > 100 µM (inactive) | > 100 µM (inactive) | > 100 µM (inactive) | – | > 100 µM (inactive) | > 100 µM (inactive) | > 100 µM (inactive) | > 100 µM (inactive) | – | > 100 µM (inactive) | > 100 µM (inactive) | > 100 µM (inactive) | > 100 µM (inactive) | > 100 µM (inactive) | > 100 µM (inactive) | > 100 µM (inactive) | > 100 µM (inactive) | > 100 µM (inactive) |
| COC(=O)c1ccccc1/C=C1\Cc2cc(C)cc(C)c2C1=O | – | > 100 µM (inactive) | > 100 µM (inactive) | > 100 µM (inactive) | > 100 µM (inactive) | > 100 µM (inactive) | 37.2 µM (inactive) | 72.4 µM (inactive) | – | > 100 µM (inactive) | 57.4 µM (inactive) | > 100 µM (inactive) | – | > 100 µM (inactive) | > 100 µM (inactive) | > 100 µM (inactive) | > 100 µM (inactive) | > 100 µM (inactive) |
| Cc1c2cc[n+](C)cc2c(C)c2c1[nH]c1ccc(Oc3ccccc3)cc12 | – | – | 2.21 µM (inactive) | – | 0.764 µM (active) | – | 0.578 µM (active) | 0.44 µM (active) | 1.89 µM (inactive) | 0.383 µM (active) | 0.504 µM (active) | 1.6 µM (inactive) | 1.4 µM (inactive) | 1.76 µM (inactive) | 0.308 µM (active) | 3.28 µM (inactive) | 1.1 µM (active) | – |
| c1ccc2nc(-c3ccc4c(c3)OCO4)ccc2c1 | – | – | – | 34.5 µM (inactive) | 24.7 µM (inactive) | 29.1 µM (inactive) | 22 µM (inactive) | 22.5 µM (inactive) | 28.8 µM (inactive) | – | 76.7 µM (inactive) | 26.4 µM (inactive) | 24.8 µM (inactive) | 18 µM (inactive) | 53.6 µM (inactive) | > 100 µM (inactive) | 41.3 µM (inactive) | – |
| CC(OC(C)(C)C)C(NC(=O)C(CCCCNC(=O)OC(C)(C)C)NC(=O)C(Cc1c[nH]c2ccccc12)NC(=O)C(N)Cc1ccccc1)C(=O)NC(Cc1ccccc1)C(=O)NC1(C(=O)O)CCCC1 (stereo unspecified) (H-FWK(Boc)T(tBu)F[Ac5c]-OH; configuration not given here) | > 100 µM (inactive) | > 100 µM (inactive) | > 100 µM (inactive) | > 100 µM (inactive) | > 100 µM (inactive) | – | > 100 µM (inactive) | > 100 µM (inactive) | > 100 µM (inactive) | > 100 µM (inactive) | > 100 µM (inactive) | > 100 µM (inactive) | > 100 µM (inactive) | > 100 µM (inactive) | > 100 µM (inactive) | > 100 µM (inactive) | > 100 µM (inactive) | > 100 µM (inactive) |
